Experimental data as given in paper PMC7435600, “Flavonoids and Terpenoids with PTP-1B Inhibitory Properties from the Infusion of Salvia amarissima Ortega” (Molecules, 2020).

Key:
[1] = target: T1, protein tyrosine phosphatase 1B (PTP-1B) (Homo sapiens, UniProt P18031); assay: Protein tyrosine phosphatase 1B inhibition assay (pNPP); assay type: biochemical; conditions: for IC50: hPTP-1B, pNPP substrate, three independent determinations, read-out: PTP-1B inhibitory activity expressed as IC50 (converted)
T1 construct: made in house
T1 sequence (P18031 1-435): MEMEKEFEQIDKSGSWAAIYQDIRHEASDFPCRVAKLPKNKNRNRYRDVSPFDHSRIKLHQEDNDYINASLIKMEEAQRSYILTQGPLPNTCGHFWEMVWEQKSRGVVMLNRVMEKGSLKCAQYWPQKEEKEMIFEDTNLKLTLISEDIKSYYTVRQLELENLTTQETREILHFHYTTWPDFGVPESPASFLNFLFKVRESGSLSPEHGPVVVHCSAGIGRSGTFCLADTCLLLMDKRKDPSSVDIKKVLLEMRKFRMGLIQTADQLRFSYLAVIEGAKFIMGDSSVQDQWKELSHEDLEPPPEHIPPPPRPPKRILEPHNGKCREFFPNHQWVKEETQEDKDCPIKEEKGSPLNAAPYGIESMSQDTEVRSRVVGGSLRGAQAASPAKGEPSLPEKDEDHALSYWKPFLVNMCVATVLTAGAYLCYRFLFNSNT
Description: The expression and purification of hPTP-1B was performed as previously described. […] Aliquots of 0–10 μL of testing materials (triplicated) were incubated for 5 min with 20 μL of enzyme stock solution in Tris-HCl (22 nM). After incubation, 10 μL of p-nitrophenylphosphate (pNPP; 5 mM) was added and further incubated for 15 min at 25 °C; then, the absorbance was determined (λmax 415 nm). For all samples, the inhibitory activity was determined as a percentage in comparison to the blank (Tris-HCl) according to the following equation:(1) % PTP1B=(1−A415t/A415C)×100 where % PTP-1B is the percentage of inhibition, A415t is the corrected absorbance of the extracts, fraction, or compounds under testing (A415end − A415initial) and A415C is the absorbance of the blank (A415end blank − A415initial blank).

[2] = parameters: method as in doi:10.17129/botsci.2187; conditions: cited from earlier work
mammal α-glucosidases = test system: mammal α-glucosidases; parameters: method as in PMID 28422509; conditions: cited from earlier work
PTP-1B = test system: PTP-1B; parameters: method as in PMID 22940448; conditions: other studies; cited from earlier work

SMILES | IC50 [1] [µM] | other results
CC1CCC23COC(=O)C2=CC(OC2OC(CO)C(O)C(O)C2O)CC3C1(C)CCc1ccoc1 (stereo not drawn) [Compound 1, amarisolide] | 280 | antinociceptive properties [2]: demonstrated; inhibitory activity against mammal α-glucosidases (mammal α-glucosidases; in vitro and in vivo): showed inhibitory activity; inhibition of α-glycosidases in vivo (mammal α-glucosidases): inhibited
COc1cc(-c2cc(=O)c3c(O)c(O)c(OC)cc3o2)ccc1O [Compound 2, 5,6,4′-trihydroxy-7,3′-dimethoxyflavone] | 189 | 
O=c1cc(-c2ccc(O)c(O)c2)oc2cc(O)c(O)c(O)c12 [Compound 3, 6-hydroxyluteolin] | 80.1 | 
C[C@@H]1O[C@@H](OC[C@H]2O[C@@H](Oc3c(-c4ccc(O)c(O)c4)oc4cc(O)cc(O)c4c3=O)[C@H](O)[C@@H](O)[C@@H]2O)[C@H](O)[C@H](O)[C@H]1O [Compound 4, rutin] | 323 | 
O=C(/C=C/c1ccc(O)c(O)c1)O[C@H](Cc1ccc(O)c(O)c1)C(=O)O [Compound 5, rosmarinic acid] | 137 | 
O=c1c(O[C@@H]2O[C@H](CO)[C@@H](O)[C@H](O)[C@H]2O)c(-c2ccc(O)c(O)c2)oc2cc(O)cc(O)c12 [Compound 6, isoquercitrin] | 260 | 
COc1cc2oc(-c3ccc(O)c(O)c3)cc(=O)c2c(O)c1O [Compound 7, pedalitin] | 62 | antinociceptive properties [2]: demonstrated; inhibition of α-glycosidases in vivo (mammal α-glucosidases): inhibited
C[C@@H]1CC[C@@]23COC(=O)C2=C[C@@H](O[C@@H]2O[C@H](CO)[C@@H](O)[C@H](O)[C@H]2O)C[C@@H]3[C@@]1(C)CCC1=CC(=O)OC1O (stereo partly drawn) [Compound 8a,b, (2S,5S,8R,9R,10R,14R,S)-2-(O-β-D-glucopyranosyl)-neo-clerodan-14-hydroxy-3, 13-diene-14,15;18,19-diolide] | 514 | 
C[C@H]1[C@H](C)CC[C@]2(C(=O)O)CC[C@]3(C)C(=CC[C@@H]4[C@@]5(C)CC[C@H](O)C(C)(C)[C@@H]5CC[C@]43C)[C@H]12 [UA, ursolic acid, reference compound] |  | times more active than compound 7 experimentally ([1]; ratio of PTP-1B IC50, UA vs compound 7): 2.2 times; IC50 (PTP-1B): […]
